{
  "source": "patent US20240299378A1",
  "about": "“EMULSION FOR USE IN THE TREATMENT OF ROSACEA” (EXINOV, priority 2021, published 2024)",
  "test_system": "cell proliferation in the local lymph nodes",
  "assay": "mouse Local Lymph Node Assay (LLNA), 3HTdR incorporation",
  "conditions": "topical on ears days 1-3; Em-A 100% (w/v) in AOO; HCA 25% (w/v) in AOO",
  "excerpt": "Preliminary tests: Based on the results of the Preliminary Compatibility Test, the tested emulsions characteristics (e.g., when the emulsion is a dense cream), its use and following the Organisation for Economic Co-operation and Development (OECD) Guidelines, the best vehicle for the tested emulsions was considered as AOO (acetone:olive oil 4:1 (v/v) mixture). The tested emulsions at 100% (w/v) were suitable for the test using AOO as vehicle. […] Based on the observations recorded in this test, the 100% (w/v) in AOO dose was selected as top dose for the main test. […] Tested emulsions were applied on the dorsal surface of ears of experimental animals (25 μL/ear using positive displacement pipette) for three consecutive days (days 1, 2 and 3). There was no treatment on days 4, 5 and 6. The cell proliferation in the local lymph nodes was assessed by measuring the incorporation of tritiated methyl thymidine (3HTdR) and the values obtained were used to calculate stimulation indices (SI) in comparison with the control group.",
  "data": [
    {"smiles": "CCCCCCC(C=O)=Cc1ccccc1", "note": "[HCA, α-hexylcinnamaldehyde]", "values": [
      {"measurement": "stimulation index (SI)", "result": 12.7}
    ]}
  ]
}
